Source: US10750743B2, “Pyridazinone herbicides” (E.I. DU PONT DE NEMOURS AND COMPANY, priority 2015, dated 2020)

Legend:
Assay type in all cases: in vivo
[1] = tested on: pigweed (Amaranthus retroflexus); test: Test A preemergence, directed soil spray, visual injury rating; details: Amaranthus retroflexus, pre-emergence, 240 h, 0 is no effect, 100 is complete control, read-out: Plant response rating (0 to 100 scale), Pigweed; for pest or weed control at 125 g/ha: 125 g ai/ha; for pest or weed control at 500 g/ha: 500 g ai/ha
Method in brief: (§1)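 Injury ratings, 0 (no effect) to 100 (complete control), were scored visually versus untreated plants roughly 10 d after treatment under greenhouse conditions. Treatments used surfactant-containing solvent formulations, sprayed onto soil preemergence or onto one- to two-leaf seedlings (2-10 cm) postemergence, grown in a loam-sand mix.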

kochia (Kochia scoparia) [2] = test: as above; details: Bassia scoparia, pre-emergence, 240 h, 0 is no effect, 100 is complete control, read-out: Plant response rating (0 to 100 scale), Kochia; for pest or weed control at 125 g/ha: 125 g ai/ha; for pest or weed control at 500 g/ha: 500 g ai/ha
Method in brief: as §1

[3] = tested on: foxtail, giant (giant foxtail, Setaria faberii); test: as above; details: Setaria faberi, pre-emergence, 240 h, 0 is no effect, 100 is complete control, read-out: Plant response rating (0 to 100 scale), Foxtail, Giant; for pest or weed control at 125 g/ha: 125 g ai/ha; for pest or weed control at 500 g/ha: 500 g ai/ha
Method in brief: as §1

[4] = tested on: barnyardgrass (Echinochloa crus-galli); test: as above; details: Echinochloa crus-galli, pre-emergence, 240 h, 0 is no effect, 100 is complete control, read-out: Plant response rating (0 to 100 scale), Barnyardgrass; for pest or weed control at 125 g/ha: 125 g ai/ha; for pest or weed control at 500 g/ha: 500 g ai/ha
Method in brief: as §1

[5] = tested on: ragweed (common ragweed, Ambrosia elatior); test: as above; details: Ambrosia artemisiifolia, pre-emergence, 240 h, 0 is no effect, 100 is complete control, read-out: Plant response rating (0 to 100 scale), Ragweed; for pest or weed control at 125 g/ha: 125 g ai/ha; for pest or weed control at 500 g/ha: 500 g ai/ha
Method in brief: as §1

[6] = tested on: ryegrass, It. (Italian ryegrass, Lolium multiflorum); test: as above; details: Lolium multiflorum, pre-emergence, 240 h, 0 is no effect, 100 is complete control, read-out: Plant response rating (0 to 100 scale), Ryegrass, It.; for pest or weed control at 125 g/ha: 125 g ai/ha; for pest or weed control at 500 g/ha: 500 g ai/ha
Method in brief: as §1

[7] = tested on: ducksalad (Heteranthera limosa); test: Test B flooded paddy test, visual rating; details: Heteranthera limosa, 360 h; Flood, 250 g ai/ha, applied to paddy water, rated after 13 to 15 d; read-out: Ducksalad plant response rating (0 to 100 scale, 0 is no effect, 100 is complete control)
Method in brief: (§2)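 Ratings use a 0-100 visual scale, where 100 is complete control, and compare treated plants with controls after 13 to 15 d of greenhouse growth. Compound went straight into paddy water kept 3 cm over the soil surface, applied to seedlings at the 2-leaf stage.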

rice (Oryza sativa) = test: Test B flooded paddy test, visual rating; details: Oryza sativa, 360 h; Flood, 250 g ai/ha, applied to paddy water, rated after 13 to 15 d; read-out: Rice plant response rating (0 to 100 scale, 0 is no effect, 100 is complete control)
Method in brief: as §2

[8] = tested on: barnyardgrass (Echinochloa crus-galli); test: Test B flooded paddy test, visual rating; details: Echinochloa crus-galli, 360 h; Flood, 250 g ai/ha, applied to paddy water, rated after 13 to 15 d; read-out: Barnyardgrass plant response rating (0 to 100 scale, 0 is no effect, 100 is complete control)
Method in brief: as §2

[9] = tested on: galium (catchweed bedstraw, Galium aparine); test: Test A postemergence application, visual injury rating; details: Galium, post-emergence, 240 h, 0 to 100 scale, 0 no effect, 100 complete control, read-out: Galium plant response rating; for pest or weed control at 125 g/ha: 125 g ai/ha; for pest or weed control at 500 g/ha: 500 g ai/ha
Method in brief: as §1

[10] = tested on: pigweed (Amaranthus retroflexus); test: as above; details: Amaranthus retroflexus, post-emergence, 240 h, 0 to 100 scale, 0 no effect, 100 complete control, read-out: Pigweed plant response rating; for pest or weed control at 125 g/ha: 125 g ai/ha; for pest or weed control at 500 g/ha: 500 g ai/ha
Method in brief: as §1

kochia (Kochia scoparia) [11] = test: as above; details: Bassia scoparia, post-emergence, 240 h, 0 to 100 scale, 0 no effect, 100 complete control, read-out: Kochia plant response rating; for pest or weed control at 125 g/ha: 125 g ai/ha; for pest or weed control at 500 g/ha: 500 g ai/ha
Method in brief: as §1

[12] = tested on: foxtail, giant (giant foxtail, Setaria faberii); test: as above; details: Setaria faberi, post-emergence, 240 h, 0 to 100 scale, 0 no effect, 100 complete control, read-out: Foxtail, Giant plant response rating; for pest or weed control at 125 g/ha: 125 g ai/ha; for pest or weed control at 500 g/ha: 500 g ai/ha
Method in brief: as §1

[13] = tested on: barnyardgrass (Echinochloa crus-galli); test: as above; details: Echinochloa crus-galli, post-emergence, 240 h, 0 to 100 scale, 0 no effect, 100 complete control, read-out: Barnyardgrass plant response rating; for pest or weed control at 125 g/ha: 125 g ai/ha; for pest or weed control at 500 g/ha: 500 g ai/ha
Method in brief: as §1

[14] = tested on: blackgrass (Alopecurus myosuroides); test: as above; details: Alopecurus myosuroides, post-emergence, 240 h, 0 to 100 scale, 0 no effect, 100 complete control, read-out: Blackgrass plant response rating; for pest or weed control at 125 g/ha: 125 g ai/ha; for pest or weed control at 500 g/ha: 500 g ai/ha
Method in brief: as §1

[15] = tested on: ragweed (common ragweed, Ambrosia elatior); test: as above; details: Ambrosia artemisiifolia, post-emergence, 240 h, 0 to 100 scale, 0 no effect, 100 complete control, read-out: Ragweed plant response rating; for pest or weed control at 125 g/ha: 125 g ai/ha; for pest or weed control at 500 g/ha: 500 g ai/ha
Method in brief: as §1

[16] = tested on: ryegrass, It. (Italian ryegrass, Lolium multiflorum); test: as above; details: Lolium multiflorum, post-emergence, 240 h, 0 to 100 scale, 0 no effect, 100 complete control, read-out: Ryegrass, It. plant response rating; for pest or weed control at 125 g/ha: 125 g ai/ha; for pest or weed control at 500 g/ha: 500 g ai/ha
Method in brief: as §1

[17] = tested on: wheat (Triticum aestivum); test: as above; details: Triticum aestivum, post-emergence, 240 h, 0 to 100 scale, 0 no effect, 100 complete control, read-out: Wheat plant response rating; for plant injury at 125 g/ha: 125 g ai/ha; for plant injury at 500 g/ha: 500 g ai/ha
Method in brief: as §1

corn (Zea mays) = test: as above; details: Zea mays, post-emergence, 240 h, 0 to 100 scale, 0 no effect, 100 complete control, read-out: Corn plant response rating; for plant injury at 125 g/ha: 125 g ai/ha; for plant injury at 500 g/ha: 500 g ai/ha
Method in brief: as §1

| SMILES | pest or weed control at 125 g/ha [1] [%] | pest or weed control at 500 g/ha [1] [%] | pest or weed control at 125 g/ha (kochia (Kochia scoparia) [2]) [%] | pest or weed control at 500 g/ha (kochia (Kochia scoparia) [2]) [%] | pest or weed control at 125 g/ha [3] [%] | pest or weed control at 500 g/ha [3] [%] | pest or weed control at 125 g/ha [4] [%] | pest or weed control at 500 g/ha [4] [%] | pest or weed control at 125 g/ha [5] [%] | pest or weed control at 500 g/ha [5] [%] | pest or weed control at 125 g/ha [6] [%] | pest or weed control at 500 g/ha [6] [%] | pest or weed control at 250 g/ha [7] [%] | plant injury at 250 g/ha (rice (Oryza sativa)) [%] | pest or weed control at 250 g/ha [8] [%] | pest or weed control at 125 g/ha [9] [%] | pest or weed control at 500 g/ha [9] [%] | pest or weed control at 125 g/ha [10] [%] | pest or weed control at 500 g/ha [10] [%] | pest or weed control at 125 g/ha (kochia (Kochia scoparia) [11]) [%] | other results |
| --- | --- | --- | --- | --- | --- | --- | --- | --- | --- | --- | --- | --- | --- | --- | --- | --- | --- | --- | --- | --- | --- |
| CCOC(=O)Oc1c(C)nn(C)c(=O)c1-c1c(C)ccc2sccc12 [Compound 30, 1,6-dihydro-1,3-dimethyl-5-(5-methylbenzo[b]thien-4-yl)-6-oxo-4-pyridazinyl ethyl carbonate] | 90 | 100 | 10 | 80 | 0 | 80 | 0 | 90 | 20 | 90 | 90 | 100 | 0 | 0 | 0 | 90 | 100 | 90 | 90 | 90 | pest or weed control at 500 g/ha (kochia (Kochia scoparia) [11]): 100%; pest or weed control at 125 g/ha [12]: 10%; pest or weed control at 500 g/ha [12]: 70%; pest or weed control at 125 g/ha [13]: 10%; pest or weed control at 500 g/ha [13]: 80%; pest or weed control at 125 g/ha [14]: 40%; pest or weed control at 500 g/ha [14]: 90%; pest or weed control at 125 g/ha [15]: 60%; pest or weed control at 500 g/ha [15]: 90%; pest or weed control at 125 g/ha [16]: 100%; pest or weed control at 500 g/ha [16]: 100%; plant injury at 125 g/ha [17]: 0%; plant injury at 500 g/ha [17]: 30%; plant injury at 125 g/ha (corn (Zea mays)): 20%; plant injury at 500 g/ha (corn (Zea mays)): 40% |
| Cc1cc2cccc(-c3c(O)c(C)nn(C)c3=O)c2o1 [Compound 12, 5-hydroxy-2,6-dimethyl-4-(2-methyl-7-benzofuranyl)-3(2H)-pyridazinone] | 60 | 100 | 60 | 100 | 10 | 60 | 0 | 50 | 60 | 80 | 100 | 100 | 0 | 0 | 0 | 80 | 90 | 30 | 50 | 0 | pest or weed control at 500 g/ha (kochia (Kochia scoparia) [11]): 50%; pest or weed control at 125 g/ha [12]: 20%; pest or weed control at 500 g/ha [12]: 40%; pest or weed control at 125 g/ha [13]: 10%; pest or weed control at 500 g/ha [13]: 30%; pest or weed control at 125 g/ha [14]: 40%; pest or weed control at 500 g/ha [14]: 80%; pest or weed control at 125 g/ha [15]: 40%; pest or weed control at 500 g/ha [15]: 80%; pest or weed control at 125 g/ha [16]: 90%; pest or weed control at 500 g/ha [16]: 100%; plant injury at 125 g/ha [17]: 0%; plant injury at 500 g/ha [17]: 20%; plant injury at 125 g/ha (corn (Zea mays)): 0%; plant injury at 500 g/ha (corn (Zea mays)): 10% |
